Measurements published in patent publication US5718900A, “Vaccines and methods for preventing and treating Fescue toxicosis in herbivores” (priority 1994, dated 1998).
Where a name gives a salt, the structure may show the parent alone.

What was measured:
[1] = test system: monoclonal antibody 15F3.E5; assay: Cross-reactivity of the monoclonal antibody, competitive ELISA on PLL-lysergic acid coated plates; type: binding, mouse; conditions: for IC50: antibody diluted 1:50, pre-incubated 1 h with lysergic acid derivative, absorbance at 405 nm, read-out: Molar Concentration at 50% Maximum Absorbance; for cross reaction of 15F3.E5 with lysergic acid derivative: at the concentrations tested
Experimental: Mouse monoclonal antibody was diluted 1:50 in ELISA diluent. Working dilutions of various lysergic acid derivatives ranging between 1.78×10^-6 to 3.93×10^-15 M were made in 1:10 increments in PBS and 50 uL aliquots were pre-incubated for 1 h with 50 uL of diluted antibody at room temperature. To determine presence of unbound antibody, pre-incubated antibody/lysergic derivatives were transferred to ELISA plates pre-coated with PLL-lysergic acid for 2 h at room temperature. After washing, ELISA plates were treated with 1:500 dilution of rabbit derived antimouse antibody conjugated to alkaline phosphatase:ELISA diluent for 2 h at room temperature and washed. Fifty microliters of alkaline phosphate substrate was added to each well and the characteristic yellow color indicating binding of mouse antibody to the PLL-lysergic acid measured at 405 nm on a Titertek Multiskan Model MCC/340 plate reader.

Angus steers = conditions: literature report; cited from earlier work
fescue toxicosis = conditions: literature report; cited from earlier work

Row | SMILES | IC50 [1] [nM] | cross reaction of 15F3.E5 with lysergic acid derivative [1] | also measured
1 | CC(C)C[C@H]1C(=O)N2CCC[C@H]2[C@]2(O)O[C@](NC(=O)[C@@H]3C=C4c5cccc6[nH]c(Br)c(c56)C[C@H]4N(C)C3)(C(C)C)C(=O)N12 [2-bromo-a-ergocryptine] | > 1330 | – | –
2 | C[C@@H](CO)NC(=O)[C@@H]1C=C2c3cccc4[nH]cc(c34)C[C@H]2N(C)C1 [Ergonovine] | 1.69 | cross reaction | –
3 | CN1C[C@H](C(=O)N[C@]2(C)O[C@@]3(O)[C@@H]4CCCN4C(=O)[C@H](Cc4ccccc4)N3C2=O)C=C2c3cccc4[nH]cc(c34)C[C@H]21 [Ergotamine tartrate] | 7.69 | cross reaction | –
4 | CC(C)[C@H]1C(=O)N2CCC[C@H]2[C@]2(O)O[C@@](C)(NC(=O)[C@@H]3C=C4c5cccc6[nH]cc(c56)C[C@H]4N(C)C3)C(=O)N12 [Ergovaline] | – | cross reaction | –
5 | CN1C[C@H](C(=O)O)C=C2c3cccc4[nH]cc(c34)C[C@H]21 [Lysergic Acid] | 0.0373 | cross reaction | –
6 | CN1C[C@H](CO)C=C2c3cccc4[nH]cc(c34)C[C@H]21 [Lysergol] | – | cross reaction | –
7 | CC(C)C1C(=O)N2CCCC2C2(O)OC(NC(=O)C3CC4c5cccc6[nH]cc(c56)CC4N(C)C3)(C(C)C)C(=O)N12 (stereo not shown) [dihydro-ergocornine] | > 1680 | – | –
8 | CC(C)[C@@]1(NC(=O)[C@@H]2C[C@@H]3c4cccc5[nH]cc(c45)C[C@H]3N(C)C2)O[C@@]2(O)[C@@H]3CCCN3C(=O)[C@H](Cc3ccccc3)N2C1=O [dihydro-ergocristine] | > 1780 | – | –
9 | CCN(CC)CCNC(=O)c1cc(Cl)c(N)cc1OC [metoclopramide] | – | – | effect on serum prolactin, weight gains and hair coats (Angus steers): increased serum prolactin and weight gains
10 | Cc1ncc(C[n+]2csc(CCO)c2C)c(N)n1 [thiamine] | – | – | effect on symptoms of fescue toxicosis (fescue toxicosis): partially alleviated symptoms
